For this experiment, the target named is T1, rat intestinal α-glucosidase (substrate pNPG).
T1 construct: gene Si; crude native enzyme from Sigma rat intestinal acetone powder
Kind of experiment: colorimetric p-nitrophenol release, […] nm. In kind it is biochemical. The following applies: substrate 4 mM pNPG (added stock); sodium phosphate buffer; 37°C, 30 min; crude enzyme.

Structures are written as SMILES. Values after ≈ are worked out from the molar mass of the structure shown.

A word on the IC50: it is the concentration that inhibits the measured activity by half. Higher therefore signals a need for much substance. As for `C[C@H]1O[C@H](O[C@H]2[C@H](O)[C@@H](O)[C@@H](O[C@H]3[C@H](O)[C@@H](O)C(O)O[C@@H]3CO)O[C@@H]2CO)[C@H](O)[C@@H](O)[C@@H]1N[C@H]1C=C(CO)[C@@H](O)[C@H](O)[C@H]1O` (stereo partly shown) [acarbose], the IC50 was 57.79 ± 0.66 µg/mL (≈ 89.5 µM).

The record behind these values is article PMC3668304, “Antidiabetic and antioxidant properties of Ficus deltoidea fruit extracts and fractions” (BMC Complementary and Alternative Medicine, 2013).
